Target: T1, sGC α1/β1 heterodimer stably expressed in CHO-K1 cells (CHO-K1/sGC) (Homo sapiens, UniProt Q02108+Q02153)
T1 construct: expressed in transfected cells
T1 sequence (Q02108 1-690): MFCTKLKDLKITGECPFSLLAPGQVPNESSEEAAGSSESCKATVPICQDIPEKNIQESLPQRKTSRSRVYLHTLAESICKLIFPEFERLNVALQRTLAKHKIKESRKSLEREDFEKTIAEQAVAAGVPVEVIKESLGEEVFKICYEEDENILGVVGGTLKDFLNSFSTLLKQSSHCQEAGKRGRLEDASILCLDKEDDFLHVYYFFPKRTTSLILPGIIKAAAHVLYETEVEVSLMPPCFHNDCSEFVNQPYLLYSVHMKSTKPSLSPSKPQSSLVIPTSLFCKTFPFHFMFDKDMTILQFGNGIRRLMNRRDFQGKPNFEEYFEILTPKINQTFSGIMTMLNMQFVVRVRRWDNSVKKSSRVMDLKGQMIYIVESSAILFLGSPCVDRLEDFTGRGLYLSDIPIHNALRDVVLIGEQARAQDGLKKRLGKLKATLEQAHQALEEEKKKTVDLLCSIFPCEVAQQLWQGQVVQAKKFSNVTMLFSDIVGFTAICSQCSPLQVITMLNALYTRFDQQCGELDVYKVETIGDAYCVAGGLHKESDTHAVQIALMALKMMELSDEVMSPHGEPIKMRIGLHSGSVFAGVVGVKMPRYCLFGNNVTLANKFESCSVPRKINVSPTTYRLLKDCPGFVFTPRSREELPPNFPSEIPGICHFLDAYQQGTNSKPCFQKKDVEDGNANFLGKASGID
T1 sequence (Q02153 1-619): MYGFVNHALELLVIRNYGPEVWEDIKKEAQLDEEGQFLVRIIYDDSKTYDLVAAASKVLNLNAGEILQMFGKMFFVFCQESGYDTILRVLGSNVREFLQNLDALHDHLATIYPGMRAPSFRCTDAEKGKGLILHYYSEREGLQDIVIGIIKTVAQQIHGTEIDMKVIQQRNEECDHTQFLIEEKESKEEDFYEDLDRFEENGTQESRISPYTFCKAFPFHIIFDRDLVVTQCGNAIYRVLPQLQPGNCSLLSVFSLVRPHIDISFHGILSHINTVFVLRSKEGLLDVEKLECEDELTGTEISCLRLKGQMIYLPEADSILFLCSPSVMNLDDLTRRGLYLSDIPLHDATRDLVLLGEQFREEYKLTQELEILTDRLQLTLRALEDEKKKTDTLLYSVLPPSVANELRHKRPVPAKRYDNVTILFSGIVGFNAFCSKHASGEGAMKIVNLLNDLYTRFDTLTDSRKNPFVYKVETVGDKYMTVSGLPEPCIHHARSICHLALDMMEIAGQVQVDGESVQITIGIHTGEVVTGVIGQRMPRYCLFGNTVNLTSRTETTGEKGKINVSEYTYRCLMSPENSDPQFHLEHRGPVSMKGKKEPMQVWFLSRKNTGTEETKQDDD
Assay: Cell-based sGC functional assay (CASA assay), cGMP generation by HTRF
Conditions: for Emax: CHO-K1, maximum cGMP production of Compound A set to 100% activation, read-out: % Act. (percent activation relative to Compound A); for EC50: CHO-K1/sGC cells, 1 hr at 37° C., 4P fit, presence or absence of DETA-NO not given, read-out: IP (nM) (inflection point)
Excerpt: Biological Assay 1: Cell-Based sGC Functional Assay (CASA Assay) Rationale
sGC is a heme-containing enzyme that converts GTP to secondary messenger cGMP. Increases in cGMP levels affect several physiological processes including vasorelaxation through multiple downstream pathways. […] Heme-dependent activators (HDAs) preferentially activate sGC containing a ferrous heme group. To determine the effect of sGC activators on enzyme activity, the CASA assay was developed to monitor the generation of cGMP in a cell line that stably expresses the heterodimeric sGC protein.
A CHO-K1 cell line stably expressing the sGC α1/β1 heterodimer was generated using a standard transfection protocol. CHO-K1 cells were transfected with plasmids pIREShyghsGCα1 and pIRESneo-hsGCβ1 simultaneously using FUGENE reagent. Clones that stably express both subunits were selected with hygromycin and neomycin for ˜2 weeks. Clone #7 was chosen for the assay and was designated CHO-K1/sGC. CHO-K1/sGC cells were maintained in F-K12 medium containing 10% heat-inactivated Fetal Bovine Serum (FBS), 100 μg/mL penicillin/streptomycin, 0.5 mg/mL hygromycin and 0.25 mg/mL G418. The cells were then cryopreserved in LN2. On the day of the assay, cells were thawed and resuspended in EBSS Assay Buffer (Sigma, E3024) supplemented with 5 mM MgCl2, 10 mM HEPES (4-(2-hydroxyethyl)piperazine-1-ethanesulfonic acid) and 0.05% BSA (bovine serum albumin) (EAB) and cell density was then adjusted to 4×10^5/mL with EAB. IBMX (3-isobutyl-1-methylxanthin, 0.5 mM) was added to inhibit degradation of cGMP. Compounds were diluted from DMSO stock solutions and added to the assay at a final DMSO concentration of 2.5%. Cells were incubated with compounds in the presence and absence of 1 μM of Diethylenetriamine/nitric oxide adduct (DETA-NO; Sigma, 17018) for 1 hr at 37° C. At the end of the incubation period, the reaction was terminated and the cells were lysed with the detection reagents from Cisbio Kits. The level of intracellular cGMP was determined using an HTRF-based assay kit (CisBio, 62GM2PEC), which detects the displacement of a fluorescence labeled cGMP from its specific antibody. The cGMP produced by test compounds was directly compared to the maximum cGMP production (this value was set to equal 100% activation.) of the published sGC-HDA Compound A:
[drawing 101] (Example 1 in WO 2010/065275, published Jun. 10, 2010). The test compounds' activities were then expressed as a percentage of Compound A, the standard in every experiment. This percent activation was calculated either in the presence or absence of DETA-NO which was then plotted. IP and maximum fold induction was derived using ADA analysis software for 4P fit.
The compounds in the Examples of the instant invention had inflection points (IP) less than or equal to 10 μM and many had IPs less than or equal to about 1 μM.

Row | Structure (SMILES) | Emax [%] | EC50 [nM] | % Act. (percent activation relative to Compound A) (maximum cGMP production of Compound A set to 100% activation) [%]
1 | CC1(c2ccccc2)C(=O)Nc2nc(-c3cn4ccnc4c(Oc4cccc(F)c4)n3)nc(N)c21 (centres unmarked) [Example 8B, 4-amino-2-[8-(3-fluorophenoxy)imidazo[1,2-a]pyrazin-6-yl]-5-methyl-5-phenyl-5,7-dihydro-6H-pyrrolo[2,3-d] pyrimidin-6-one] | 110 | 22 | –
2 | CC1(c2ccc(F)cc2)C(=O)Nc2nc(-c3cn4ccnc4c(OCC4CC(F)(F)C4)n3)nc(N)c21 (centres unmarked) [Example 31A, 4-amino-2-{8-[(3,3-difluoro-cyclobutyl)methoxy]imidazo [1,2-a]pyrazin-6-yl}-5-(4-fluoro-phenyl)-5-methyl-5,7-dihydro-6H-pyrrolo[2,3-d] pyrimidin-6-one] | 98 | 145 | –
3 | CC1(c2ccc(Cl)cc2)C(=O)Nc2nc(-c3cn4ccnc4c(Oc4cc(F)ccc4F)n3)nc(N)c21 (centres unmarked) [Example 27A, 4-amino-5-(4-chlorophenyl)-2-[8-(2,5-difluoro-phenoxy)imidazo [1,2-a]pyrazin-6-yl]-5-methyl-5,7-dihydro-6H-pyrrolo[2,3-d] pyrimidin-6-one] | 128 | 47 | –
4 | CC1(c2ccc(F)cc2)C(=O)Nc2nc(-c3cn4ccnc4c(Oc4cc(F)ccc4F)n3)nc(N)c21 (centres unmarked) [Example 25A, 4-amino-2-[8-(2,5-difluorophenoxy)imidazo[1,2-a]pyrazin-6-yl]-5-(4-fluorophenyl)-5-methyl-5,7-dihydro-6H-pyrrolo[2,3-d] pyrimidin-6-one] | 97 | 32 | –
5 | CC(Nc1nc(-c2nc(N)c3c(n2)NC(=O)C3(C)c2ccc(Cl)cc2)cn2ccnc12)c1ccccc1 (centres unmarked) [Example 74, 4-amino-5-(4-chlorophenyl)-5-methyl-2-{8-[(1-phenylethyl)amino]imidazo [1,2-a]pyrazin-6-yl}-5,7-dihydro-6H-pyrrolo[2,3-d] pyrimidin-6-one] | – | 231 | 87
6 | CC(C)CSc1nc(-c2nc(N)c3c(n2)NC(=O)C3(C)c2ccc(F)cc2)cn2ccnc12 (centres unmarked) [Example 63A, 4-amino-5-(4-fluorophenyl)-5-methyl-2-{8-[(2-methylpropyl)sulfanyl]imidazo [1,2-a]pyrazin-6-yl}-5,7-dihydro-6H-pyrrolo[2,3-d] pyrimidin-6-one] | 93 | 10 | –
7 | CC1(c2ccccc2)C(=O)Nc2nc(-c3cn4ccnc4c(Oc4c(F)ccc(F)c4F)n3)nc(N)c21 (centres unmarked) [Example 7B, 4-amino-5-methyl-5-phenyl-2-[8-(2,3,6-trifluorophenoxy)imidazo[1,2-a]pyrazin-6-yl]-5,7-dihydro-6H-pyrrolo[2,3-d] pyrimidin-6-one] | 112 | 1020 | –
8 | CC1(c2ccc(F)cn2)C(=O)Nc2nc(-c3cn4ccnc4c(OCC4CC(F)(F)C4)n3)nc(N)c21 (centres unmarked) [Example 33B, 4-amino-2-{8-[(3,3-difluoro-cyclobutyl)methoxy]imidazo [1,2-a]pyrazin-6-yl}-5-(5-fluoro-pyridin-2-yl)-5-methyl-5,7-dihydro-6H-pyrrolo[2,3-d] pyrimidin-6-one] | 112 | 1040 | –
9 | CC1(c2ccc(F)cc2)C(=O)Nc2nc(-c3cn4ccnc4c(Oc4c(F)ccc(F)c4F)n3)nc(N)c21 (centres unmarked) [Example 6A, 4-amino-5-(4-fluorophenyl)-5-methyl-2-[8-(2,3,6-trifluorophenoxy)imidazo[1,2-a]pyrazin-6-yl]-5,7-dihydro-6H-pyrrolo[2,3-d] pyrimidin-6-one] | 89 | 499 | –
10 | CC1(C)C(=O)Nc2nc(-c3cn4ccnc4c(Oc4cc(F)cc(F)c4)n3)nc(N)c21 [Example 24, 4-amino-2-[8-(3,5-difluorophenoxy)imidazo[1,2-a]pyrazin-6-yl]-5,5-dimethyl-5,7-dihydro-6H-pyrrolo[2,3-d] pyrimidin-6-one] | 89 | 238 | –
11 | CC1(c2ccc(Cl)cc2)C(=O)Nc2nc(-c3cn4ccnc4c(NCC4CC4(C)C)n3)nc(N)c21 (centres unmarked) [Example 56A, 4-amino-5-(4-chlorophenyl)-2-(8-{[(2,2-dimethylcyclo-propyl)methyl]amino}imidazo [1,2-a]pyrazin-6-yl)-5-methyl-5,7-dihydro-6H-pyrrolo [2,3-d]pyrimidin-6-one] | 110 | 51 | –
12 | CC1(c2ccccc2)C(=O)Nc2nc(-c3cn4ccnc4c(Oc4cccc(F)c4F)n3)nc(N)c21 (centres unmarked) [Example 13B, 4-amino-2-[8-(2,3-difluoro-phenoxy)imidazo [1,2-a]pyrazin-6-yl]-5-methyl-5-phenyl-5,7-dihydro-6H-pyrrolo[2,3-d] pyrimidin-6-one] | 109 | 14 | –
13 | CC1(c2ccccc2)C(=O)Nc2nc(-c3cn4ccnc4c(Oc4ccccc4F)n3)nc(N)c21 (centres unmarked) [Example 5B, 4-amino-2-[8-(2-fluorophenoxy)imidazo[1,2-a]pyrazin-6-yl]-5-methyl-5-phenyl-5,7-dihydro-6H-pyrrolo[2,3-d] pyrimidin-6-one] | 107 | 80 | –
14 | CC1(c2ccc(Cl)cc2)C(=O)Nc2nc(-c3cn4ccnc4c(NCc4ccccc4)n3)nc(N)c21 (centres unmarked) [Example 60A, 4-amino-2-[8-(benzylamino)imidazo[1,2-a]pyrazin-6-yl]-5-(4-chloro-phenyl)-5-methyl-5,7-dihydro-6H-pyrrolo[2,3-d] pyrimidin-6-one] | 72 | 7 | –
15 | CC1(c2ccc(F)cc2)C(=O)Nc2nc(-c3cn4ccnc4c(NCC4CC(F)(F)C4)n3)nc(N)c21 (centres unmarked) [Example 53A, 4-amino-2-(8-{[(3,3-difluoro-cyclobutyl)methyl]amino}imidazo[1,2-a]pyrazin-6-yl)-5-(4-fluoro-phenyl)-5-methyl-5,7-dihydro-6H-pyrrolo[2,3-d] pyrimidin-6-one] | 110 | 948 | –
16 | CC1(c2ccc(F)cc2)C(=O)Nc2nc(-c3cn4ccnc4c(OC4CCCC4)n3)nc(N)c21 (centres unmarked) [Example 46A, 4-amino-2-[8-(cyclopentyl-oxy)imidazo [1,2-a]pyrazin-6-yl]-5-(4-fluorophenyl)-5-methyl-5,7-dihydro-6H-pyrrolo[2,3-d] pyrimidin-6-one] | 108 | 912 | –
